Target: T1, GPR105 (Homo sapiens, UniProt Q15391)
T1 construct: gene P2RY14
T1 sequence (Q15391 1-338): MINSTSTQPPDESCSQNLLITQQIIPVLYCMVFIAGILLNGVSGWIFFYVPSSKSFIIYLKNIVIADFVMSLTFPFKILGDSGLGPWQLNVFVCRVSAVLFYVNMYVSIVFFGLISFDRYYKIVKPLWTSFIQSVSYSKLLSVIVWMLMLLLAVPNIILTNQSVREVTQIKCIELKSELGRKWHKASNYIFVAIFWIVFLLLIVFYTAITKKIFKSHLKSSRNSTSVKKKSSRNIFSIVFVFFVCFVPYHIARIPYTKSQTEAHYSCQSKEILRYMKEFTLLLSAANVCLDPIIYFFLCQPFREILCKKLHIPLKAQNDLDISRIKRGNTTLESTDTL
Experiment: cAMP-Glo luminescence assay in HEK293-hGPR105 cells (forskolin plus UDPG stimulated), antagonism
Format: cell-based

IC50: 5.1 µM
Compound: C/C=C/C#CC#C[C@@H](O)[C@@H](/C=C/CCCO)O[C@@H]1O[C@H](CO)[C@@H](O)[C@H](O)[C@H]1O [LBT, lobetyolin]
